Test results from US10822331B2, “Processes for preparing ATR inhibitors” (Vertex Pharmaceuticals Incorporated, priority 2011, dated 2020).

System: HCT116 colorectal cancer cells
Test: Cisplatin sensitization assay (96 h MTS cell viability)
Format: cell-based
Settings: concentration of compound required to reduce the IC50 of Cisplatin alone by at least 3-fold, HCT116, 96 h
Protocol: Compounds can be screened for their ability to sensitize HCT116 colorectal cancer cells to Cisplatin using a 96 h cell viability (MTS) assay. […] Compounds and Cisplatin are then both added simultaneously to the cell media in 2-fold serial dilutions from a top final concentration of […] as a full matrix of concentrations in a final cell volume of 200 μl, and the cells are then incubated at 37° C. in 5% CO2. After 96 h, 40 μl of MTS reagent (Promega G358a) is added to each well and the cells are incubated for 1 h at 37° C. in 5% CO2.

Compound | Cisplatin sensitization [nM]
[2H]C([2H])([2H])NC([2H])([2H])c1ccc(-c2cc(-c3nc(-c4ccc(S(=O)(=O)C(C)C)cc4)cnc3N)on2)cc1 [II-2, 3-[3-[4-[dideuterio-(trideuteriomethylamino)methyl]phenyl]isoxazol-5-yl]-5-(4-isopropylsulfonylphenyl)pyrazin-2-amine] | 29
[2H]C([2H])([2H])NCc1ccc(-c2cc(-c3nc(-c4ccc(S(=O)(=O)C(C)C)cc4)cnc3N)on2)cc1 [II-3, 5-(4-isopropylsulfonylphenyl)-3-[3-[4-[(trideuteriomethylamino)methyl]phenyl]isoxazol-5-yl]pyrazin-2-amine] | 39
[2H]C([2H])(NC)c1ccc(-c2cc(-c3nc(-c4ccc(S(=O)(=O)C(C)C)cc4)cnc3N)on2)cc1 [II-1, 3-[3-[4-[dideuterio(methylamino)methyl]phenyl]isoxazol-5-yl]-5-(4-isopropylsulfonylphenyl)pyrazin-2-amine] | 39
